According to patent US7812022B2 (GlaxoSmithKline LLC, priority 2004, dated 2010):

Experiments:
ErbB2 or EGFR = molecular target: T1, ErbB2 or EGFR; assay: ErbB family substrate phosphorylation enzyme assay (HTRF), Method A or Method B; assay type: biochemical
T1 construct: enzymes purified from a baculovirus expression system; Reagent production was conducted essentially as described in Brignola, P. S., et al, (2002) J. Biol. Chem. 277(2): 1576-1585
How it was run: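 Baculovirus-expressed EGFR or ErbB2 (0.8 or 10 nM in enzyme mix) phosphorylates biotinylated Peptide C with 20 µM ATP and 0.8 µM peptide (substrate-mix levels), MnCl2, pH 7.5. Reaction ran 90 min at 20 °C with EDTA stop and HTRF anti-phosphotyrosine read. Method A: enzyme added last; Method B: 1 h enzyme–compound preincubation.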

[1] = test system: BT474 and HN5 tumor cell lines; assay: Methylene blue growth inhibition assay (cellular Method A); assay type: cell-based, Human; conditions: Homo sapiens, BT-474, 72 h, 3 days, read-out: Activity (Method): growth inhibition IC50 class
How it was run: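 Colo205, BT474 and HN5 cells in DMEM/10% FBS (BT474 10,000, HN5 3,000 cells/well) treated next day with compound in DMEM, 0.3% final DMSO, for 3 days at 37° C. Biomass stained with methylene blue, solubilized, read at OD 620; IC50 interpolated by nonlinear regression from % inhibition versus vehicle.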

[2] = Method B: enzyme mix pre-incubated with compound 1 hour at 20° C., started with substrate mix
[3] = Method A: substrate mix added first, reaction started with enzyme mix

| Structure (SMILES) | IC50 [1] | Activity (Method): pIC50 class against ErbB2 or EGFR (ErbB2 or EGFR; [2]) | Activity (Method): pIC50 class against ErbB2 or EGFR (ErbB2 or EGFR; [3]) |
| --- | --- | --- | --- |
| COc1cccc(C(=S)Nc2cccc(-c3nn4ccccc4c3-c3ccnc(Nc4ccc5c(c4)OCCO5)n3)c2)c1 [Example 9, N-(3-{3-[2-(2,3-Dihydro-benzo[1,4-]dioxin-6-ylamino)-pyrimidin-4-yl]-pyrazolo[1,5-a]pyridin-2-yl}-phenyl)-3-methoxy-thiobenzamide] | 100 to 1000 nM | – | ++ (A) (at least one pIC50 measurement greater than 6 against either ErbB2 or EGFR but no measurement greater than pIC50 of 7) |
| O=C(Nc1cccc(-c2nn3ccccc3c2-c2ccnc(Nc3ccc4c(c3)CNCC4)n2)c1)c1c(F)cccc1F [Example 64, 2,6-Difluoro-N-(3-{3-[2-(1,2,3,4-tetrahydro-7-isoquinolinylamino)-4-pyrimidinyl]pyrazolo[1,5-a]pyridin-2-yl}phenyl)benzamide] | < 100 nM | +++ (B) (at least one pIC50 measurement of greater than 7 against either ErbB2 or EGFR) | – |
| O=C(Nc1cccc(-c2nn3ccccc3c2-c2ccnc(Nc3ccc(N4CCCCC4)c(F)c3)n2)c1)c1c(F)cccc1F [Example 147, 2,6-Difluoro-N-{3-[3-(2-{[3-fluoro-4-(1-piperidinyl)-phenyl]amino}-4-pyrimidinyl)pyrazolo[1,5-a]pyridin-2-yl]phenyl}benzamide] | 100 to 1000 nM | – | +++ (A) (at least one pIC50 measurement of greater than 7 against either ErbB2 or EGFR) |
| Cc1cccc(C(=O)Nc2cccc(-c3nn4ccccc4c3-c3ccnc(Nc4cccc(F)c4)n3)c2)c1 [Example 18, N-(3-{3-[2-(3-Fluoro-phenylamino)-pyrimidin-4-yl]-pyrazolo[1,5-a]pyridin-2-yl}-phenyl)-3-methyl-benzamide] | 100 to 1000 nM | ++ (B) (at least one pIC50 measurement greater than 6 against either ErbB2 or EGFR but no measurement greater than pIC50 of 7) | – |
| O=C(Nc1cccc(-c2nn3ccccc3c2-c2ccnc(Nc3cccc(F)c3)n2)c1)c1ccsc1 [Example 81, N-[3-(3-{2-[(3-fluorophenyl)amino]-4-pyrimidinyl}pyrazolo[1,5-a]pyridin-2-yl)phenyl]-3-thiophenecarboxamide] | 100 to 1000 nM | ++ (B) (at least one pIC50 measurement greater than 6 against either ErbB2 or EGFR but no measurement greater than pIC50 of 7) | – |

Continued, in another order:

| IC50 [1] | Structure (SMILES) | Activity (Method): pIC50 class against ErbB2 or EGFR (ErbB2 or EGFR; [2]) | Activity (Method): pIC50 class against ErbB2 or EGFR (ErbB2 or EGFR; [3]) |
| --- | --- | --- | --- |
| 100 to 1000 nM | Cc1ccsc1C(=O)Nc1cccc(-c2nn3ccccc3c2-c2ccnc(Nc3cccc(F)c3)n2)c1 [Example 77, N-[3-(3-{2-[(3-fluorophenyl)amino]-4-pyrimidinyl}pyrazolo[1,5-a]pyridin-2-yl)phenyl]-3-methyl-2-thiophenecarboxamide] | +++ (B) (at least one pIC50 measurement of greater than 7 against either ErbB2 or EGFR) | – |
| 100 to 1000 nM | Cc1cccc(C(=O)Nc2cccc(-c3nn4ccccc4c3-c3ccnc(Nc4cccc(F)c4)n3)c2)c1Cl [Example 70, 2-Chloro-N-[3-(3-{2-[(3-fluorophenyl)amino]-4-pyrimidinyl}pyrazolo[1,5-a]pyridin-2-yl)phenyl]-3-methylbenzamide] | ++ (B) (at least one pIC50 measurement greater than 6 against either ErbB2 or EGFR but no measurement greater than pIC50 of 7) | – |
| < 100 nM | CN(C)CC(=O)Nc1ccc(Nc2nccc(-c3c(-c4cccc(NC(=O)c5c(F)cccc5F)c4)nn4ccccc34)n2)cc1 [Example 113, N-(3-{3-[2-({4-[(N,N-dimethylglycyl)amino]phenyl}-amino)-4-pyrimidinyl]pyrazolo[1,5-a]pyridin-2-yl}phenyl)-2,6-difluorobenzamide] | +++ (B) (at least one pIC50 measurement of greater than 7 against either ErbB2 or EGFR) | – |
| 100 to 1000 nM | O=C(Nc1cccc(-c2nn3ccccc3c2-c2ccnc(Nc3cccc(F)c3)n2)c1)c1c(F)ccc(F)c1Cl [Example 21, 2-Chloro-3,6-difluoro-N-(3-{3-[2-(3-fluoro-phenylamino)-pyrimidin-4-yl]-pyrazolo[1,5-a]pyridin-2-yl}-phenyl)-benzamide] | +++ (B) (at least one pIC50 measurement of greater than 7 against either ErbB2 or EGFR) | – |
